In PMC10726920 (Cancer Medicine, 2023):
“Also recorded” adds a separate entry of the source.

How the values were obtained:
[1] = test system: human ALL cell line xenografts; parameters: method as in PMID 26917778; conditions: cited from earlier work
[2] = test system: mTOR pathway substrates 4EBP1, S6, AKT; test: Immunoblotting of paired bone marrow samples (pretreatment vs Day 8) from trial patients; assay type: in vivo, human
From the text: Bone marrow aspirates harvested prior to treatment and again prior to drug administration on Day 8 ± 2 of treatment from the same patients were shipped overnight to a central laboratory, where marrow mononuclear cells isolated on Ficoll–Hypaque gradients were lysed under denaturing conditions that preserve protein phosphorylations. Paired whole cell lysates were subjected to SDS‐polyacrylamide gel electrophoresis and immunoblotting as described in the Supplementary Method: Data S1.
Cells were isolated from bone marrow or blood samples using Histopaque-1077 (Millipore-Sigma, St. Louis, MO) step gradients. […] Cells for ex vivo drug exposure were resuspended at a concentration of 1 x 10^6 cells/ml in RPMI 1640 medium containing 10% (v/v) heat-inactivated fetal bovine serum, 50 U/ml penicillin G, 50 µg/ml streptomycin, and 1 mM glutamine.
(§1) After samples were dialyzed sequentially into 4 M urea and 0.1% (w/v) SDS, lyophilized and reconstituted in SDS-sample buffer consisting of 4 M urea, 2% (w/v) SDS, […] (pH 6.8 at 4 °C), 10 mM EDTA, and 1% (w/v/) 2-mercaptoethanol, aliquots containing […] of total cellular protein were subjected to SDS-PAGE on gels containing 5-20% polyacrylamide gradients, transferred to nitrocellulose, and probed with antibodies as previously described ^34, 35. […]

[3] = test system: phospho-4EBP1 (direct mTORC1 substrate) in Jurkat ALL cell line; test: Immunoblotting of Jurkat cells treated 24 h with sapanisertib; assay type: cell-based, human
From the text: FIGURE 2 Effect of MLN0128 concentrations on mTOR‐associated phosphorylation in vitro, ex vivo, and in the context of the present trial. […] (C) Samples harvested from the indicated patients prior to treatment (lanes 1, 4, 6, 8, and 10), on Day 8 prior to therapy (lanes 2, 5, 7, 9, and 11), or at the time of removal from study after 6 weeks (lane 3) were subjected to SDS‐PAGE and blotting for the indicated antigens. Jurkat cells (lane 12) were included in the blot because they were known to be positive for all analytes.[29] The housekeeping protein nucleolin (NCL) served as a loading control.
as §1

CC(C)n1nc(-c2ccc3oc(N)nc3c2)c2c(N)ncnc21 [sapanisertib]
growth of human ALL cell line xenografts [1]: inhibited growth
induction of BIMEL and PUMA in trial samples ([2]; five pairs of samples): minimal in one pair of samples (Patient 2) and absent from the other four pairs
impact on mTOR‐mediated phosphorylation (4EBP1, S6, AKT) in trial samples ([2]; pretreatment vs Day 8 trough, five patients): limited impact; also recorded: little evidence that mTOR‐mediated phosphorylation has been disrupted; also recorded: failed to convincingly demonstrate inhibition
concentration diminishing phosphorylation of 4EBP1 without change in total 4EBP1 [3]: 62.5 to 200 nM
